One data set concerns Artemia. Nature of the data set: Toxicity against brine shrimp. In kind it is organism-based. As to conditions: in vivo.
A further data set relates to Staphylococcus aureus. Nature of the data set: Antibacterial activity against Staphylococcus aureus at 100 ug/disk. It is filed as functional.
A further data set has as its system Bacillus subtilis. The data set can be described thus: Antibacterial activity against Bacillus subtilis at 100 ug/disk. It is filed as functional.
Another data set concerns Escherichia coli. Nature of the data set: Antibacterial activity against sEscherichia coli at 100 ug/disk. In kind it is functional.
A further data set has as its system Klebsiella pneumoniae. The data set can be described thus: Antibacterial activity against Klebsiella pneumoniae at 100 ug/disk. In kind it is functional.

Calls of active or inactive are those of the source. No cut-off for these calls is given here.

As to `CC(=O)OCc1nccc2c1C(=O)C(O)=C(C)C2=O`, the Activity entry with Artemia was “Non-toxic”. Also, the zone of inhibition at 100 µg/disc in the data set with Staphylococcus aureus (read-out: IZ) was 14 mm; with Bacillus subtilis (read-out: IZ), 16 mm; in the data set on Escherichia coli (read-out: IZ), 12 mm; in the data set on Klebsiella pneumoniae (read-out: IZ) it was 12 mm.

`COc1cc(O)c2c(c1)C(COC(C)=O)N(C=O)C=C2` (stereo not given): in the data set on Artemia, the Activity result is reported as “Non-toxic”. In addition, the outcome with Staphylococcus aureus, in the data set on Bacillus subtilis, in the data set with Escherichia coli and in the data set with Klebsiella pneumoniae was inactive.
